Tested on: glioma stem cells (GSC)
Assay: alamarBlue assay: sensitizing glioma stem cells to Temozolomide
Type: cell-based
Conditions: mibefradil 30 nM for 24 hrs, washed, then Temozolomide 5 μM for 24 hrs, FIG. 4
Experimental: FIG. 4. Effect of mibefradil (Mi) on sensitizing glioma stem cells (GSC) to Temozolomide (TMZ). The GSCs were seeded in 24 well plates as 50,000 cells/well overnight. They were grown in serum-free neurobasal media (Invitrogen), supplemented with human recombinant EGF and bFGF (R&D Systems) at 37° C. in 5% CO2, […]. Cells were treated with the T type calcium channel blocker mibefradil (30 nM) for 24 hrs, washed and then treated with Temozolomide (5 μM) for 24 hrs The reagent alamarBlue® (Invitrogen) was added to each well to arrive at a final concentration of 10% alamarBlue® in each well and fluorescence intensity was determined according to the manufacturers instructions. Plates were incubated for 1-2 hrs and 100 μl of supernatant was transferred to a 96 well plate for alamarBlue® reading.
FIG. 5. […]
In order to determine the effect of inhibition of a product of the Hs.459642 Unigene Cluster on cancer stem cells, the effect of two inhibitors of T-type calcium channels was studied to determine if CACNA1H inhibition sensitizes cancer cells to further anti-cancer treatment. […] Subsequent to the combination treatment, with the anti-cancer agent administered sequentially to the CACNA1H inhibitor, fluorescence intensity indicative of cell proliferation was analyzed, with greater intensity indicating increased cellular proliferation. […]

## COCC(=O)O[C@]1(CCN(C)CCCc2nc3ccccc3[nH]2)CCc2cc(F)ccc2[C@@H]1C(C)C [Mi, mibefradil]
  fluorescence intensity (alamarBlue, indicative of cell proliferation): dramatically reduced
